Results from ChEMBL document CHEMBL1201862, “PubChem BioAssay data set” (2004).
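All cell lines were grown in 96-well plates and treated with compound for 48 hours. GI50 = concentration required for 50% inhibition of growth.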 Active and inactive are the calls of the source. Cut-off read from the data, not from the text of the source: active = GI50 up to about 1.1 µM and inactive = higher.

Tests used:
Experiment in all cases: NCI anticancer screen, dose series, 48 h
CCRF-CEM = tested on: CCRF-CEM
DLD-1 = tested on: DLD-1
DMS-114 = tested on: DMS-114
DMS-273 = tested on: DMS-273
EKVX = tested on: EKVX
HOP-18 = tested on: HOP-18
HOP-92 = tested on: HOP-92
KM-20L2 = tested on: KM-20L2
MOLT-4 = tested on: MOLT-4
OVCAR-3 = tested on: OVCAR-3
OVCAR-5 = tested on: OVCAR-5
OVCAR-8 = tested on: OVCAR-8
SK-MEL-28 = tested on: SK-MEL-28
SNB-75 = tested on: SNB-75
SNB-78 = tested on: SNB-78
DU-145 = tested on: DU-145
Hs-578T = tested on: Hs-578T
PC-3 = tested on: PC-3
T47D = tested on: T47D
SR = tested on: SR

SMILES	GI50 (CCRF-CEM)	GI50 (DLD-1)	GI50 (DMS-114)	GI50 (DMS-273)	GI50 (EKVX)	GI50 (HOP-18)	GI50 (HOP-92)	GI50 (KM-20L2)	GI50 (MOLT-4)	GI50 (OVCAR-3)	GI50 (OVCAR-5)	GI50 (OVCAR-8)	GI50 (SK-MEL-28)	GI50 (SNB-75)	GI50 (SNB-78)	GI50 (DU-145)	GI50 (Hs-578T)	GI50 (PC-3)	GI50 (T47D)	GI50 (SR)
C=C1C(=O)OC2C1CC1OC2C(C)CCC/C(C)=C\CCC1(C)O (stereo unspecified)	6.82 µM (inactive)	18.7 µM (inactive)	11.6 µM (inactive)	16.2 µM (inactive)	20.4 µM (inactive)	10.6 µM (inactive)	10.7 µM (inactive)	29.7 µM (inactive)	8.15 µM (inactive)	9.75 µM (inactive)	69.2 µM (inactive)	9.46 µM (inactive)	16.4 µM (inactive)	15.3 µM (inactive)	12.1 µM (inactive)	–	–	–	–	–
C[C@]12CC[C@H](O)C=C1CC[C@@H]1[C@@H]2CC[C@]2(C)C(c3ccc(=O)oc3)CC[C@]12O (stereo partly specified)	0.0125 µM (active)	0.0174 µM (active)	–	0.0125 µM (active)	0.0311 µM (active)	0.014 µM (active)	0.014 µM (active)	0.0244 µM (active)	–	0.0125 µM (active)	0.108 µM (active)	0.015 µM (active)	0.0266 µM (active)	0.0156 µM (active)	0.0163 µM (active)	–	–	–	–	–
COC(=O)C1=C(OC(=O)/C=C/c2ccc(Cl)cc2)C(C(=O)OC)[C@@]2(O)[C@@H](C(=O)OC)[C@H](C)C[C@@H]1[C@@H]2C(=O)OC (stereo partly specified)	13.2 µM (inactive)	–	–	–	22.5 µM (inactive)	–	–	–	15.8 µM (inactive)	30.8 µM (inactive)	28.4 µM (inactive)	14.6 µM (inactive)	26.4 µM (inactive)	25.9 µM (inactive)	–	39.4 µM (inactive)	3.9 µM (inactive)	20.7 µM (inactive)	26.1 µM (inactive)	–
CCCCCCCCCCCC[N+](CCCCCCCCCCCC)=C1SCCS1	–	8.47 µM (inactive)	1.7 µM (inactive)	3.44 µM (inactive)	13.1 µM (inactive)	16.4 µM (inactive)	10.8 µM (inactive)	5.28 µM (inactive)	2.98 µM (inactive)	7.76 µM (inactive)	12.2 µM (inactive)	2.86 µM (inactive)	11 µM (inactive)	16 µM (inactive)	3.61 µM (inactive)	–	–	–	–	3.14 µM (inactive)
CCN(CC)CCCNc1ncc(C)c2[nH]c3ccncc3c12	21.6 µM (inactive)	31 µM (inactive)	7.8 µM (inactive)	7.26 µM (inactive)	16.1 µM (inactive)	–	6.1 µM (inactive)	6.24 µM (inactive)	2.65 µM (inactive)	12.2 µM (inactive)	4.7 µM (inactive)	7.29 µM (inactive)	12.9 µM (inactive)	12.4 µM (inactive)	19.1 µM (inactive)	–	–	–	–	–
NCCCNCCSSCc1ccccc1CSSCCNCCCN	4.54 µM (inactive)	44.4 µM (inactive)	57.3 µM (inactive)	> 100 µM (inactive)	> 100 µM (inactive)	> 100 µM (inactive)	25.9 µM (inactive)	> 100 µM (inactive)	22 µM (inactive)	73.8 µM (inactive)	> 100 µM (inactive)	> 100 µM (inactive)	75 µM (inactive)	16.4 µM (inactive)	56.5 µM (inactive)	–	–	–	–	–
COc1cc(C2C(C(=O)O)=C(CO)Oc3cc4c(cc32)OCO4)cc(OC)c1OC (stereo unspecified)	> 100 µM (inactive)	> 100 µM (inactive)	> 100 µM (inactive)	> 100 µM (inactive)	> 100 µM (inactive)	77.1 µM (inactive)	35.6 µM (inactive)	> 100 µM (inactive)	> 100 µM (inactive)	–	> 100 µM (inactive)	> 100 µM (inactive)	83.6 µM (inactive)	40.7 µM (inactive)	> 100 µM (inactive)	–	–	–	–	–
C=CCn1c(=O)c(C)cn(COCCO)c1=O	> 100 µM (inactive)	–	–	–	> 100 µM (inactive)	–	> 100 µM (inactive)	–	> 100 µM (inactive)	> 100 µM (inactive)	> 100 µM (inactive)	> 100 µM (inactive)	> 100 µM (inactive)	> 100 µM (inactive)	–	> 100 µM (inactive)	> 100 µM (inactive)	> 100 µM (inactive)	> 100 µM (inactive)	–
C[S+](C)([O-])=Nn1c(=O)n2n(c1=O)[C@H]1CC[C@@H]2C1	> 100 µM (inactive)	–	–	–	> 100 µM (inactive)	–	> 100 µM (inactive)	–	> 100 µM (inactive)	> 100 µM (inactive)	> 100 µM (inactive)	> 100 µM (inactive)	> 100 µM (inactive)	> 100 µM (inactive)	–	> 100 µM (inactive)	> 100 µM (inactive)	> 100 µM (inactive)	> 100 µM (inactive)	> 100 µM (inactive)
CCOC(=O)Oc1ccc(C(CNC(C)C)OC(=O)OCC)cc1OC(=O)OCC (stereo unspecified)	48.1 µM (inactive)	–	–	–	> 100 µM (inactive)	–	> 100 µM (inactive)	–	96.8 µM (inactive)	> 100 µM (inactive)	> 100 µM (inactive)	> 100 µM (inactive)	> 100 µM (inactive)	> 100 µM (inactive)	–	> 100 µM (inactive)	> 100 µM (inactive)	> 100 µM (inactive)	> 100 µM (inactive)	> 100 µM (inactive)
CC1(C)N=C(N)N=C(N)N1c1ccc(OCCCOc2ccccc2)c(Cl)c1	0.175 µM (active)	1.51 µM (inactive)	0.076 µM (active)	0.0262 µM (active)	0.303 µM (active)	0.67 µM (active)	0.409 µM (active)	0.0715 µM (active)	0.0336 µM (active)	0.406 µM (active)	0.295 µM (active)	0.514 µM (active)	0.809 µM (active)	0.948 µM (active)	0.538 µM (active)	–	–	–	–	–
O=C(Nc1nc2ccc([N+](=O)[O-])cc2s1)C(=O)C(C(=O)c1ccccc1F)C1OC(=O)c2ccccc21 (stereo unspecified)	17.3 µM (inactive)	41 µM (inactive)	25.1 µM (inactive)	33.7 µM (inactive)	22.1 µM (inactive)	–	> 100 µM (inactive)	49.4 µM (inactive)	17.7 µM (inactive)	–	71 µM (inactive)	47.9 µM (inactive)	32.1 µM (inactive)	30.9 µM (inactive)	25.1 µM (inactive)	–	–	–	–	16.8 µM (inactive)
CC(NC(C#N)CC12CC3CC(CC(C3)C1)C2)c1ccccc1 (stereo unspecified)	20.7 µM (inactive)	–	–	–	> 100 µM (inactive)	–	0.753 µM (active)	–	27.9 µM (inactive)	13.6 µM (inactive)	63.8 µM (inactive)	60.8 µM (inactive)	> 100 µM (inactive)	–	–	41.8 µM (inactive)	–	> 100 µM (inactive)	52 µM (inactive)	28.4 µM (inactive)
CC(C)c1ccccc1SCc1cc(=O)cc(CSc2ccccc2C(C)C)o1	26.9 µM (inactive)	–	–	–	19.3 µM (inactive)	–	15.2 µM (inactive)	–	22.6 µM (inactive)	17.9 µM (inactive)	15.3 µM (inactive)	22.7 µM (inactive)	32.7 µM (inactive)	19.4 µM (inactive)	–	23.1 µM (inactive)	13.5 µM (inactive)	13.7 µM (inactive)	24 µM (inactive)	31.7 µM (inactive)
CC12Nc3ccccc3C1=C(c1ccccc1)CC1C(=O)OC(=O)C12 (stereo unspecified)	> 100 µM (inactive)	> 100 µM (inactive)	> 100 µM (inactive)	> 100 µM (inactive)	> 100 µM (inactive)	–	> 100 µM (inactive)	> 100 µM (inactive)	> 100 µM (inactive)	> 100 µM (inactive)	> 100 µM (inactive)	> 100 µM (inactive)	> 100 µM (inactive)	1.86 µM (inactive)	> 100 µM (inactive)	–	–	–	–	–
COc1cc(C2c3cc4c(cc3[C@@H](Nc3cnc5ccccc5c3)C3COC(=O)[C@H]23)OCO4)cc(OC)c1O (stereo partly specified)	0.043 µM (active)	1.05 µM (active)	0.277 µM (active)	0.047 µM (active)	1.27 µM (inactive)	0.34 µM (active)	0.381 µM (active)	1.47 µM (inactive)	< 0.01 µM (active)	1.65 µM (inactive)	0.736 µM (active)	0.346 µM (active)	1.14 µM (inactive)	0.478 µM (active)	2.69 µM (inactive)	–	–	–	–	–
CN(C)c1ccc(N2C(=S)SC(=N\c3ccccc3)/C2=N/c2ccccc2)cc1	> 100 µM (inactive)	–	–	–	–	–	–	–	> 10 µM (inactive)	> 100 µM (inactive)	> 100 µM (inactive)	> 100 µM (inactive)	> 100 µM (inactive)	> 100 µM (inactive)	–	> 100 µM (inactive)	> 100 µM (inactive)	37.8 µM (inactive)	> 100 µM (inactive)	> 100 µM (inactive)
NC(=S)N/N=C1\c2ccccc2CCC1CCC1(O)CCc2ccccc2C1=O (stereo unspecified)	22.6 µM (inactive)	–	–	–	11.4 µM (inactive)	–	–	–	24.5 µM (inactive)	18 µM (inactive)	26 µM (inactive)	16.6 µM (inactive)	20.7 µM (inactive)	15.7 µM (inactive)	–	37.8 µM (inactive)	16.1 µM (inactive)	31 µM (inactive)	4.04 µM (inactive)	35.2 µM (inactive)
COc1ccc2c(c1)c1cc(OC)ccc1n2CCCCOc1ccc(-c2c3ccccc3c(-c3ccc(OCCCCn4c5ccc(OC)cc5c5cc(OC)ccc54)cc3)c3ccccc23)cc1	> 100 µM (inactive)	> 100 µM (inactive)	> 100 µM (inactive)	> 100 µM (inactive)	> 100 µM (inactive)	–	> 100 µM (inactive)	> 100 µM (inactive)	> 100 µM (inactive)	> 100 µM (inactive)	> 100 µM (inactive)	> 100 µM (inactive)	> 100 µM (inactive)	> 100 µM (inactive)	–	–	–	–	–	–
